The results in this text go back to patent US20260042834A1, “ANTI-CORTICOTROPIN-RELEASING HORMONE ANTIBODIES AND POLYCYSTIC OVARY SYNDROME” (HBM ALPHA THERAPEUTICS, INC., priority 2022, published 2026).

The test system of the test is human CRHR1. As to the kind of experiment: CRH-induced luciferase reporter blocking assay, CHO-CRE-hCRHR1 cells. It counts as cell-based. The following applies: CHO-CRE-hCRHR1 Clone 11, data not shown. The protocol: To create CHO-CRE-hCRHR1, -hCRHR2, -mCRHR1, and -mCRHR2 reporter cell lines, pcDNA3.1-hCRHR1, -hCRHR2, -mCRHR1, and -mCRHR2 were introduced into CHO-CRE cells established above by electroporation as described above. Selection antibiotics hygromycin at 500 μg/ml and G418 at 1,000 μg/ml were employed. Individual established stable cell lines were characterized by both CRH and forskolin stimulation.
Activated GPCR proteins increase production of the intracellular cAMP.
Blocking CRHR1 by small molecules or neutralization of CRH peptide can reduce luciferase expression if the CRH-CRHR1 system works in CHO-CRE-hCRHR1 cells.
50 μl of 4× serially diluted antibodies was added (8 points, 1/4 diluted by growth medium) to plates containing CHO-CRE-hCRHR1 cells, and 50 μl of 4×CRH (4× is 2 nM, final is 0.5 nM) was added. Similarly, 4×CRH (4× is 0.4 nM, final is 0.1 nM) was added to CHO-CRE-hCRHR2 cells and CHO-CRE-mCRHR1 cells, and 4×CRH (4× is 20 nM, final is 5 nM) was added to CHO-CRE-mCRHR2 cells. Next, plates were incubated 4-6 hours at 37° C. in a CO2 incubator. 60 μl of culture medium was removed, to which was added 60 μl of Bio-Glo luciferase, followed by incubation for 10 min at RT. Plates were read in a luciferase plate reader (EnVision, PerkinElmer).
For orientation: In a reporter assay the amount or activity of a reporter protein is the signal.

`CCCCN(CC)c1nc(C)nc2c1c(C)c(C)n2-c1c(C)cc(C)cc1C` [Antalarmin, reference compound]: the CRH-mediated luciferase expression entry was “blocked”.
